Measurements from patent US20230312550A1, “N-(2-(4-CYANOTHIAZOLIDIN-3-YL)-2-OXOETHYL)-QUINOLINE-4-CARBOXAMIDES” (AstraZeneca AB, priority 2020, published 2023).
≈ marks a conversion by molar mass, not a printed value.

Legend:
[1] = molecular target: human Fibroblast activation protein alpha (hFAP) (Homo sapiens (Human), UniProt Q12884); assay: hFAP inhibition assay (tight binders); assay type: biochemical; settings: Ala-Pro-AMC 20 μM, n = 1 or geometric mean n = 2-6; also: hFAP 2.4 pM
Procedure: The plates were read on a PHERAstar® reader with excitation 340 nm and emission 460 nm. Data were analyzed in Genedata Screener®. IC50 values were determined by plotting % inhibition versus log compound concentration and using a one site dose response model.

FAP = FAP (Homo sapiens (Human), UniProt Q12884); assay: hFAP inhibition assay; assay type: biochemical; settings: Ala-Pro-AMC 20 μM, n = 1 or geometric mean n = 2-3
Outline: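 Human FAP (0.48 nM) in 100 mM Tris HCl, 100 mM NaCl, 0.05% Chaps, pH 7.4 was preincubated 15 min at rt in the dark with compounds (10-point, 3-fold series from 50 μM). Substrate was added from a 40 μM solution, then 30 min at rt. Fluorescence read at ex 340/em 460 nm; IC50 from one-site dose-response fit of % inhibition.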

Kinetic solubility = settings: kinetic from dmso stock, Solubility, kinetic solubility; n = 1 or average of n = 2-3
Procedure: Kinetic solubility was measured as described in Comput Aided Mol Des 2015, 29, 795.

[2] = Metabolic stability in human liver microsomes (HLM); settings: human, HLM CLint, n = 1 or average of n = 2-3
Procedure: Metabolic stability in HLM was measured as described in J Comput Aided Mol Des 2015, 29, 795.

[3] = Metabolic stability in rat hepatocytes (rHep); settings: n = 1 or geometric mean of n = 2-3
[4] = molecular target: Prolyl endopeptidase, Prolyl Oligopeptidase (hPREP) (Homo sapiens (Human), UniProt P48147); assay: hPrep inhibition assay; assay type: biochemical; settings: hPREP 0.6 nM, Z-Gly-Pro-amino-methylcoumarin 50 μM; read-out: PREP IC50
Outline: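 Recombinant human PREP at 0.6 nM final with Z-Gly-Pro-AMC substrate at 50 μM final in Tris-HCl pH 7.5, NaCl, Triton X-100, glutathione; 15 min rt preincubation then 20 min rt reaction in dark. AMC fluorescence (ex 340/em 460 nm); IC50 from one-site dose-response fit of % inhibition.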

hFAP (M39-A757) = hFAP (M39-A757) (Homo sapiens (Human), UniProt Q12884); assay: hFAP binding assay (surface plasmon resonance); settings: SPR, 20° C.; for hFAP Binding assay k(off) / hFAP Binding assay k(on): single cycle kinetics; for Kd: n = 1 or geometric mean n = 2-4
hFAP (M39-A757), sequence (Q12884 39-757): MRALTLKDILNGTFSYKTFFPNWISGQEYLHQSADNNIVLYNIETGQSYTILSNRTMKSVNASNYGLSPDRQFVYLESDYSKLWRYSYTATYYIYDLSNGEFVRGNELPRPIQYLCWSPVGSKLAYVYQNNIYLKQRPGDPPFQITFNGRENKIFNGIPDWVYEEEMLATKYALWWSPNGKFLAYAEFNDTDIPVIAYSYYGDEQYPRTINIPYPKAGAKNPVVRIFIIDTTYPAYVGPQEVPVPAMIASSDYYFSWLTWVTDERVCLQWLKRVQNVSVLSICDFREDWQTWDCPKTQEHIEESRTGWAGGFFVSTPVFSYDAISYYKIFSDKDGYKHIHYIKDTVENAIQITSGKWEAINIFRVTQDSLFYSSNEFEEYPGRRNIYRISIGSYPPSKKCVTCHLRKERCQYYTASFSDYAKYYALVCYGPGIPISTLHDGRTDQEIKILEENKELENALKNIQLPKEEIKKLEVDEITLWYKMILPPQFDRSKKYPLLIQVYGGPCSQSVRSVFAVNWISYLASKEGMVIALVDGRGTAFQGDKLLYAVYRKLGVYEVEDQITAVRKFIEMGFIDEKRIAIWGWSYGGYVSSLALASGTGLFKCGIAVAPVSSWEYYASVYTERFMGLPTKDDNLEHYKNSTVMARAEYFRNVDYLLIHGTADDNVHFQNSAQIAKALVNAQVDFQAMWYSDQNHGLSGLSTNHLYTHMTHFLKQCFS

FAP, sequence (Q12884 38-760): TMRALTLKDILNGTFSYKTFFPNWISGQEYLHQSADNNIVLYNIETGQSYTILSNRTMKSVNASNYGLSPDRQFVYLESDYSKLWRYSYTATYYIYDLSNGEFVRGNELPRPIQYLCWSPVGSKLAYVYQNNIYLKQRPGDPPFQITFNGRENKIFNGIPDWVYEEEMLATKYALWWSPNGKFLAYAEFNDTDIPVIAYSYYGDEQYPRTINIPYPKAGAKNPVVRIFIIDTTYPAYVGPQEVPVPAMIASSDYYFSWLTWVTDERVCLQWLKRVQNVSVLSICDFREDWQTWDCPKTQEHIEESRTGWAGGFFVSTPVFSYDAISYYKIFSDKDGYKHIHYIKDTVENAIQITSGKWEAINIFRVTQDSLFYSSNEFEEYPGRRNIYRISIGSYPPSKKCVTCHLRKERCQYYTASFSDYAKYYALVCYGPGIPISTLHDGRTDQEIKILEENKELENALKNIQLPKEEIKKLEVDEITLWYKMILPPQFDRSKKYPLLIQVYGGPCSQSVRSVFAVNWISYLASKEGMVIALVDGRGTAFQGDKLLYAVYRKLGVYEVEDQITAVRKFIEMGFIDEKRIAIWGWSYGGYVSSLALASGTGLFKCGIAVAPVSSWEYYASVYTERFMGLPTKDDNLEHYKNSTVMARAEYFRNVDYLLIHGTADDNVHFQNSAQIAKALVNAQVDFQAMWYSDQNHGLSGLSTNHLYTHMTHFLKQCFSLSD
human Fibroblast activation protein alpha (hFAP), sequence (Q12884 38-760): as above
Prolyl endopeptidase, Prolyl Oligopeptidase (hPREP), sequence (P48147 whole entry): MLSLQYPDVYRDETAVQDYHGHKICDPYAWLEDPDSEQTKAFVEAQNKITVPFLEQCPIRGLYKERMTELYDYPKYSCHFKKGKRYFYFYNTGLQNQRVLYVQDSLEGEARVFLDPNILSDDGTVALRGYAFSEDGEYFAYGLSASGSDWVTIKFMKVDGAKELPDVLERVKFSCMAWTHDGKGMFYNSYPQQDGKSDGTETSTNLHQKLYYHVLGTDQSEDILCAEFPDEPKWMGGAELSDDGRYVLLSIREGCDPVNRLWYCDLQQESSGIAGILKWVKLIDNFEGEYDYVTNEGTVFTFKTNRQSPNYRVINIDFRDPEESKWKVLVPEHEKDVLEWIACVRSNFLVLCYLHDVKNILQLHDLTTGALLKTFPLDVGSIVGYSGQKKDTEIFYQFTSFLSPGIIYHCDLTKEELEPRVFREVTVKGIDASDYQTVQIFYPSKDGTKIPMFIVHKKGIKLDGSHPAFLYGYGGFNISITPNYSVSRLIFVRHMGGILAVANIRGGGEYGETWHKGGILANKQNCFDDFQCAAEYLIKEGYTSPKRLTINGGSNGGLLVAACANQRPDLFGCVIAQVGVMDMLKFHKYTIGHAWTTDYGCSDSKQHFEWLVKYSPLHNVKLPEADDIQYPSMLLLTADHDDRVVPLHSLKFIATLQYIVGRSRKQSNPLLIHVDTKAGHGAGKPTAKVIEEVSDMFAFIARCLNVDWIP

| IC50 [1] [nM] | IC50 (FAP; hFAP […]) [nM] | solubility (Kinetic solubility) [µM] | microsomal CLint [2] [µL/min/mg] | rHep CLint [3] [μL/min/1E6] | IC50 [4] [nM] | hFAP Binding assay k(off) (hFAP (M39-A757)) [s⁻¹] | hFAP Binding assay k(on) (hFAP (M39-A757)) [M⁻¹ s⁻¹] | Kd (hFAP (M39-A757)) [nM] | IC50 (FAP; hFAP 0.24 nM) [nM] | SMILES |
| --- | --- | --- | --- | --- | --- | --- | --- | --- | --- | --- |
| 0.1 | 0.28 | 22 (≈ 10.5 µg/mL) | 120 | 31 | 500 | 0.00016 | 4900000 | 0.04 | – | N#C[C@@H]1CSCN1C(=O)CNC(=O)c1ccnc2ccc(N3CCC(C(F)(F)F)CC3)cc12 [Example 39, (R)—N-(2-(4-Cyanothiazolidin-3-yl)-2-oxoethyl)-6-(4-(trifluoromethyl)-piperidin-1-yl)quinoline-4-carboxamide] |
| 0.074 | – | 140 | 220 | 160 | 540 | 0.000072 | 1700000 | 0.042 | 0.22 | C[C@H]1CC(F)(F)CCN1c1ccc2nccc(C(=O)NCC(=O)N3CSC[C@H]3C#N)c2c1 (mixture of isomers) [Example 44, N-(2-((R)-4-Cyanothiazolidin-3-yl)-2-oxoethyl)-6-((RS)-4,4-difluoro-2-methylpiperidin-1-yl)quinoline-4-carboxamide] |
| 0.064 | 0.21 | 56 (≈ 23.2 µg/mL) | 14 | 24 | 130 | 0.00011 | 5600000 | 0.021 | – | N#C[C@@H]1CSCN1C(=O)CNC(=O)c1ccnc2ccc(N3CC[C@H](F)C3)cc12 [Example 51, N-(2-((R)-4-Cyanothiazolidin-3-yl)-2-oxoethyl)-6-((S)-3-fluoropyrrolidin-1-yl)quinoline-4-carboxamide] |
| 0.087 | – | 800 | 92 | 15 | 560 | 0.00022 | 120000 | 1.9 | 0.54 | N#C[C@@H]1CSCN1C(=O)CNC(=O)c1ccnc2ccc(-c3ccnn3[C@H]3CCCCO3)cc12 (mixture of isomers) [Example 176, N-(2-((R)-4-Cyanothiazolidin-3-yl)-2-oxoethyl)-6-(1-((RS)-tetrahydro-2H-pyran-2-yl)-1H-pyrazol-5-yl)quinoline-4-carboxamide] |
| 0.11 | 0.22 | 1.6 (≈ 0.761 µg/mL) | 72 | 12 | 210 | 0.00026 | 5600000 | 0.046 | – | N#C[C@@H]1CSCN1C(=O)CNC(=O)c1ccnc2ccc(N3C[C@@H]4[C@H](C3)[C@H]4C(F)(F)F)cc12 [Example 208, N-(2-((R)-4-Cyanothiazolidin-3-yl)-2-oxoethyl)-6-((1R,5S,6R)-6-(trifluoromethyl)-3-azabicyclo[3.1.0]hexan-3-yl)quinoline-4-carboxamide] |
| 0.2 | 0.31 | 63 (≈ 26.3 µg/mL) | 25 | 27 | 160 | 0.00018 | 2100000 | 0.085 | – | N#C[C@@H]1CSCN1C(=O)CNC(=O)c1ccnc2ccc(N3CC(F)(F)C3)cc12 [Example 23, (R)—N-(2-(4-Cyanothiazolidin-3-yl)-2-oxoethyl)-6-(3,3-difluoroazetidin-1-yl)quinoline-4-carboxamide] |
| 0.083 | 0.25 | 11 (≈ 4.5 µg/mL) | 55 | 63 | 440 | 0.00025 | 6700000 | 0.036 | – | C[C@@H]1CCN(c2ccc3nccc(C(=O)NCC(=O)N4CSC[C@H]4C#N)c3c2)C1 [Example 55, N-(2-((R)-4-Cyanothiazolidin-3-yl)-2-oxoethyl)-6-((R)-3-methylpyrrolidin-1-yl)quinoline-4-carboxamide] |
